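Cultured in 96-well plates, cells were exposed to test compound for 48 hours across five concentrations. Here, GI50 denotes the concentration required for 50% inhibition of growth.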 The source made the active and inactive calls. Rule as the data show it: active = GI50 up to about 1.1 µM and inactive = higher.
How the values were obtained:
Assay in all cases: NCI anticancer screen, dose series, 48 h
[1] = tested on: K562
[2] = tested on: UO-31
[3] = tested on: KM12
[4] = tested on: HL-60
[5] = tested on: RPMI-8226
[6] = tested on: MDA-MB-435
[7] = tested on: LOX IMVI
[8] = tested on: HOP-92
[9] = tested on: SN12C
[10] = tested on: SNB-75
[11] = tested on: OVCAR-5
[12] = tested on: SK-OV-3
[13] = tested on: NCI-H23
[14] = tested on: SK-MEL-2
[15] = tested on: Hs-578T
[16] = tested on: T47D
[17] = tested on: UACC-62
[18] = tested on: A498
[19] = tested on: SK-MEL-28
[20] = tested on: A549

| SMILES | GI50 [1] | GI50 [2] | GI50 [3] | GI50 [4] | GI50 [5] | GI50 [6] | GI50 [7] | GI50 [8] | GI50 [9] | GI50 [10] | GI50 [11] | GI50 [12] | GI50 [13] | GI50 [14] | GI50 [15] | GI50 [16] | GI50 [17] | GI50 [18] | GI50 [19] | GI50 [20] |
| --- | --- | --- | --- | --- | --- | --- | --- | --- | --- | --- | --- | --- | --- | --- | --- | --- | --- | --- | --- | --- |
| Nc1nc(N)c2nn(-c3ccc(C(=O)O)cc3)nc2n1 | > 100 µM (inactive) | > 100 µM (inactive) | > 100 µM (inactive) | 72.1 µM (inactive) | > 100 µM (inactive) | > 100 µM (inactive) | > 100 µM (inactive) | > 100 µM (inactive) | > 100 µM (inactive) | > 100 µM (inactive) | > 100 µM (inactive) | > 100 µM (inactive) | > 100 µM (inactive) | > 100 µM (inactive) | > 100 µM (inactive) | > 100 µM (inactive) | > 100 µM (inactive) | > 100 µM (inactive) | > 100 µM (inactive) | > 100 µM (inactive) |
| CCC(C)C(=O)O[C@H]1C(=O)O[C@@H]2C[C@H]3C(C)=CC(=O)[C@@H](O)[C@]3(C)[C@H]3[C@@H](O)[C@H](O)[C@@]4(C)OC[C@]32[C@@H]14 (stereo not given in full) | 0.0109 µM (active) | < 0.0217 µM (active) | < 0.0161 µM (active) | 0.014 µM (active) | < 0.016 µM (active) | < 0.01 µM (active) | < 0.0129 µM (active) | < 0.0237 µM (active) | < 0.01 µM (active) | < 0.0167 µM (active) | < 0.0244 µM (active) | 0.0832 µM (active) | < 0.01 µM (active) | < 0.0252 µM (active) | < 0.01 µM (active) | < 0.01 µM (active) | < 0.019 µM (active) | < 0.01 µM (active) | < 0.01 µM (active) | 0.141 µM (active) |
| CN1CCOC1(C)c1ccccc1 (stereo not given) | > 100 µM (inactive) | > 100 µM (inactive) | > 100 µM (inactive) | > 100 µM (inactive) | > 100 µM (inactive) | > 100 µM (inactive) | > 100 µM (inactive) | > 100 µM (inactive) | > 100 µM (inactive) | > 100 µM (inactive) | > 100 µM (inactive) | > 100 µM (inactive) | > 100 µM (inactive) | > 100 µM (inactive) | > 100 µM (inactive) | > 100 µM (inactive) | > 100 µM (inactive) | > 100 µM (inactive) | > 100 µM (inactive) | > 100 µM (inactive) |
| Cn1c2ccccc2n2c3ccccc3c3nnc(N)c-3c12 | > 65.8 µM (inactive) | > 100 µM (inactive) | 61.5 µM (inactive) | > 100 µM (inactive) | > 100 µM (inactive) | > 88.7 µM (inactive) | 57.7 µM (inactive) | 42.4 µM (inactive) | 0.757 µM (active) | 1.95 µM (inactive) | > 100 µM (inactive) | > 95.1 µM (inactive) | 17.5 µM (inactive) | 22.6 µM (inactive) | 1.69 µM (inactive) | 1.64 µM (inactive) | 73.6 µM (inactive) | > 100 µM (inactive) | > 81.3 µM (inactive) | > 100 µM (inactive) |
| C/C(=N\OCC(O)CNCCSCc1ccccc1)c1ccccc1Cl (stereo not given) | 38.4 µM (inactive) | 15.7 µM (inactive) | 18.6 µM (inactive) | 24 µM (inactive) | 21.8 µM (inactive) | 17.4 µM (inactive) | 16.8 µM (inactive) | 13.2 µM (inactive) | 18.6 µM (inactive) | 21.4 µM (inactive) | 19.3 µM (inactive) | 19.2 µM (inactive) | 37.5 µM (inactive) | 40.4 µM (inactive) | 27.7 µM (inactive) | 22.6 µM (inactive) | 18.6 µM (inactive) | 15.6 µM (inactive) | 20.7 µM (inactive) | 19.6 µM (inactive) |
| CC(NNC(=O)c1ccncc1)c1ccc(Cl)cc1Cl (stereo not given) | > 100 µM (inactive) | 38.9 µM (inactive) | 49.3 µM (inactive) | 46.5 µM (inactive) | 77.8 µM (inactive) | > 100 µM (inactive) | 86.5 µM (inactive) | 70.6 µM (inactive) | > 100 µM (inactive) | > 100 µM (inactive) | > 100 µM (inactive) | > 100 µM (inactive) | > 100 µM (inactive) | > 100 µM (inactive) | > 100 µM (inactive) | 51.9 µM (inactive) | > 100 µM (inactive) | > 100 µM (inactive) | > 100 µM (inactive) | > 100 µM (inactive) |
| O=C1Nc2ccccc2/C1=C1/Nc2ccccc2/C1=N/OCCO | > 100 µM (inactive) | 0.363 µM (active) | 0.149 µM (active) | 3.87 µM (inactive) | > 100 µM (inactive) | 2.47 µM (inactive) | 0.69 µM (active) | > 100 µM (inactive) | 29 µM (inactive) | > 100 µM (inactive) | > 100 µM (inactive) | 0.299 µM (active) | 0.656 µM (active) | 0.457 µM (active) | 6.14 µM (inactive) | 5.62 µM (inactive) | 10.5 µM (inactive) | 0.213 µM (active) | > 100 µM (inactive) | 1.52 µM (inactive) |
| CC(C)(C)[C@@H]1NC(=O)CN1C(=O)OCc1ccccc1 | > 100 µM (inactive) | > 100 µM (inactive) | > 100 µM (inactive) | > 100 µM (inactive) | > 100 µM (inactive) | > 100 µM (inactive) | > 100 µM (inactive) | > 100 µM (inactive) | > 100 µM (inactive) | > 100 µM (inactive) | > 100 µM (inactive) | > 100 µM (inactive) | > 100 µM (inactive) | > 100 µM (inactive) | 0.661 µM (active) | > 100 µM (inactive) | > 100 µM (inactive) | > 100 µM (inactive) | > 100 µM (inactive) | > 100 µM (inactive) |
| CCn1c(=N)sc2nc3ccccc3n2c1=O | > 100 µM (inactive) | 14.9 µM (inactive) | > 100 µM (inactive) | > 100 µM (inactive) | > 100 µM (inactive) | > 100 µM (inactive) | > 100 µM (inactive) | > 100 µM (inactive) | > 100 µM (inactive) | 40 µM (inactive) | > 100 µM (inactive) | > 100 µM (inactive) | > 100 µM (inactive) | > 100 µM (inactive) | > 100 µM (inactive) | > 100 µM (inactive) | > 100 µM (inactive) | > 100 µM (inactive) | > 100 µM (inactive) | > 100 µM (inactive) |
| O=C(NCCOC(=O)OCCNC(=O)NC1CCCCC1)NC1CCCCC1 | > 100 µM (inactive) | 71.3 µM (inactive) | > 100 µM (inactive) | > 100 µM (inactive) | > 100 µM (inactive) | > 100 µM (inactive) | > 100 µM (inactive) | 27.1 µM (inactive) | > 100 µM (inactive) | 0.26 µM (active) | > 100 µM (inactive) | 92.5 µM (inactive) | 80.2 µM (inactive) | > 100 µM (inactive) | > 100 µM (inactive) | > 100 µM (inactive) | > 100 µM (inactive) | > 100 µM (inactive) | > 100 µM (inactive) | > 100 µM (inactive) |
| O=C1CCSC(=S)N1c1ccc(Br)c(Cl)c1 | 32.9 µM (inactive) | 30.2 µM (inactive) | 31.2 µM (inactive) | 26 µM (inactive) | 33.7 µM (inactive) | 26.8 µM (inactive) | 22 µM (inactive) | 25.4 µM (inactive) | 41.2 µM (inactive) | 25.5 µM (inactive) | 43.9 µM (inactive) | 37.6 µM (inactive) | 53.2 µM (inactive) | 28.4 µM (inactive) | 39 µM (inactive) | 14.9 µM (inactive) | 23.6 µM (inactive) | 22.2 µM (inactive) | 17.7 µM (inactive) | 35.3 µM (inactive) |
| O=[N+]([O-])c1cc(-c2nnc(C34CC5CC(CC(C5)C3)C4)o2)cc([N+](=O)[O-])c1 | 21 µM (inactive) | > 100 µM (inactive) | > 100 µM (inactive) | > 100 µM (inactive) | 82.2 µM (inactive) | 19.1 µM (inactive) | > 100 µM (inactive) | 36.1 µM (inactive) | 90.8 µM (inactive) | 74.6 µM (inactive) | > 100 µM (inactive) | > 100 µM (inactive) | > 100 µM (inactive) | 63.4 µM (inactive) | 64.7 µM (inactive) | > 100 µM (inactive) | 86.9 µM (inactive) | 61.7 µM (inactive) | 86.1 µM (inactive) | 48.1 µM (inactive) |
| Cn1c2c(c3ccccc3c1=O)C(=O)c1ccccc1-2 | > 100 µM (inactive) | 21.9 µM (inactive) | > 100 µM (inactive) | 6.93 µM (inactive) | > 100 µM (inactive) | > 100 µM (inactive) | 27.2 µM (inactive) | > 100 µM (inactive) | 80.2 µM (inactive) | 77.6 µM (inactive) | > 100 µM (inactive) | 81.7 µM (inactive) | 30.8 µM (inactive) | > 100 µM (inactive) | > 100 µM (inactive) | > 100 µM (inactive) | 59 µM (inactive) | 74.1 µM (inactive) | > 100 µM (inactive) | > 100 µM (inactive) |
